{"source": "patent US10150771B2", "about": "“Triazolopyrazinones as PDE1 inhibitors” (H. Lundbeck A/S, priority 2014, dated 2018)", "format_in_all_cases": "biochemical", "key": {"PDE1C": {"molecular_target": "PDE1C (Homo sapiens, UniProt Q14123)", "sequence (Q14123 whole entry)": "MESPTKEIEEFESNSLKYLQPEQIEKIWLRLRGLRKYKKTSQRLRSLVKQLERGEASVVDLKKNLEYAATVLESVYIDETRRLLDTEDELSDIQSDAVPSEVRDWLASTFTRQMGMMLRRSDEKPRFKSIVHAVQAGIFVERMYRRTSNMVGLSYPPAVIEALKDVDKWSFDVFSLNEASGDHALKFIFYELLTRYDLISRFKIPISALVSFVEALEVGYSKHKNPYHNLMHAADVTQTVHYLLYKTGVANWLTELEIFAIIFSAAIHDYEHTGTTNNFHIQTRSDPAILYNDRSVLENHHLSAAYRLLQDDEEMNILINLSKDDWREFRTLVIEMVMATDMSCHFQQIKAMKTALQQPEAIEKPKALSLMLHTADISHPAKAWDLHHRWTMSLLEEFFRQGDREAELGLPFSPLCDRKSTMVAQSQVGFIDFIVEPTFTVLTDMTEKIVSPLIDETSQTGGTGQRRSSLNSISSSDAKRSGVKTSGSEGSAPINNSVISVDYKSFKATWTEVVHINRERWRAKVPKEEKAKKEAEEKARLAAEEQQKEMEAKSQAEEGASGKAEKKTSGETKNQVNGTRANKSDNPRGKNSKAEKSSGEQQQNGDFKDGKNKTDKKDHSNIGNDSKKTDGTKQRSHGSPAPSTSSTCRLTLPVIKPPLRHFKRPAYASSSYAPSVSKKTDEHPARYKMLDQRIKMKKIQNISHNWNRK", "assay": "PDE1 inhibition assay (SPA), PDE1C", "settings": "for IC50: concentration required to reach 50% inhibition of the enzyme, 15 nM tritium labelled cAMP, read-out: PDE1C inhibition (nM or %): IC50", "outline": "(§1)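 A scintillation proximity assay used enzyme sufficient for 20–25% substrate conversion and 15 nM tritiated cAMP in 50 mM HEPES pH 7.6, 10 mM MgCl2, 0.02% Tween20 and 0.1 mg/ml BSA, run for 1 h at room temperature. Reactions were stopped with yttrium silicate SPA beads. IC50 values were derived from activity relative to uninhibited control.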"}, "PDE1B": {"molecular_target": "PDE1B (Homo sapiens, UniProt Q01064)", "sequence (Q01064 whole entry)": "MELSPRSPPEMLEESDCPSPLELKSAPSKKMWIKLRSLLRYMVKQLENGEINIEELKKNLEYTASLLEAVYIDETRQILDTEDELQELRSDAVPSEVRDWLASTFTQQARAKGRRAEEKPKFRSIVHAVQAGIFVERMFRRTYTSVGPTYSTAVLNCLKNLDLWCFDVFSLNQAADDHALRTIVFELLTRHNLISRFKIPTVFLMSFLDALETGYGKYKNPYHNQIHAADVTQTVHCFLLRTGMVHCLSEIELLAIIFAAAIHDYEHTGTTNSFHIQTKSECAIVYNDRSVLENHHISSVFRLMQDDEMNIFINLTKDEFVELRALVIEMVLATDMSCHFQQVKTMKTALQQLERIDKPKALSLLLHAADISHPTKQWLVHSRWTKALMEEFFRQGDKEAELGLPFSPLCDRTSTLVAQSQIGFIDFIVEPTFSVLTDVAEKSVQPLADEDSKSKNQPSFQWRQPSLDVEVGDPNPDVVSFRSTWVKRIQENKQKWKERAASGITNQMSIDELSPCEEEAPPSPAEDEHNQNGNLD", "assay": "PDE1 inhibition assay (SPA), PDE1B", "settings": "for IC50: concentration required to reach 50% inhibition of the enzyme, 15 nM tritium labelled cAMP, read-out: PDE1B inhibition (nM or %): IC50; for inhibition at 10 µM: 1 h, % inhibition of the enzyme at a concentration of 10 micro molar of the compound, read-out: PDE1B inhibition (nM or %): % inhib", "outline": "as §1"}, "PDE1A": {"molecular_target": "PDE1A (Homo sapiens, UniProt P54750)", "sequence (P54750 whole entry)": "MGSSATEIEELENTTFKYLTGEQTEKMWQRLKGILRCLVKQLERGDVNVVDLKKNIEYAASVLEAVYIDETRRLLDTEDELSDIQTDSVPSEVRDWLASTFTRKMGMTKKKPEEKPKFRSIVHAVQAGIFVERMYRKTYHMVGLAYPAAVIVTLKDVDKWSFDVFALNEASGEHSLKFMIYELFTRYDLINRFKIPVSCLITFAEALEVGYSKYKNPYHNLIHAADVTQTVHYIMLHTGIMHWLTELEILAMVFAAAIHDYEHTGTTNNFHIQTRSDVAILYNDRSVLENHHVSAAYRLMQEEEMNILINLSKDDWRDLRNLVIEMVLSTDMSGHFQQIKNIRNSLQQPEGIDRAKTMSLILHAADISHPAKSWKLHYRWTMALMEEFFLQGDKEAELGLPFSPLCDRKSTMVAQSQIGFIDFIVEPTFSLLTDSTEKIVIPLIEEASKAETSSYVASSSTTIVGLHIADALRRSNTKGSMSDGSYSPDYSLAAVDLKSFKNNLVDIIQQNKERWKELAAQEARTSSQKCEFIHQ", "assay": "PDE1 inhibition assay (SPA), PDE1A", "settings": "for IC50: concentration required to reach 50% inhibition of the enzyme, 15 nM tritium labelled cAMP, read-out: PDE1A inhibition (nM or %): IC50; for inhibition at 10 µM: 1 h, % inhibition of the enzyme at a concentration of 10 micro molar of the compound, read-out: PDE1A inhibition (nM or %): % inhib", "outline": "as §1"}}, "data": [{"smiles": "CCCc1nnc2c(=O)n(CC3CCC(C)CC3)ccn12", "note": "(racemic) [7-((4-methylcyclohexyl)methyl)-3-propyl-[1,2,4]triazolo[4,3-a]pyrazin-8(7H)-one]", "values": [{"measurement": "IC50", "setting": "PDE1C", "result": 65, "unit": "nM"}, {"measurement": "IC50", "setting": "PDE1B", "result": 53, "unit": "nM"}, {"measurement": "IC50", "setting": "PDE1A", "result": 83, "unit": "nM"}]}, {"smiles": "Cc1ccccc1Cc1cn2c(C3CCOCC3)nnc2c(=O)n1CC1CCCCC1", "note": "[7-(cyclohexylmethyl)-6-(2-methylbenzyl)-3-(tetrahydro-2H-pyran-4-yl)-[1,2,4]triazolo[4,3-a]pyrazin-8(7H)-one]", "values": [{"measurement": "IC50", "setting": "PDE1C", "result": 10, "unit": "nM"}, {"measurement": "IC50", "setting": "PDE1B", "result": 44, "unit": "nM"}, {"measurement": "IC50", "setting": "PDE1A", "result": 41, "unit": "nM"}]}, {"smiles": "O=c1c2nnc(C3CCOCC3)n2cc(Cc2cccc(F)c2)n1Cc1cccc(F)c1", "note": "[6,7-bis(3-fluorobenzyl)-3-(tetrahydro-2H-pyran-4-yl)-[1,2,4]triazolo[4,3-a]pyrazin-8(7H)-one]", "values": [{"measurement": "IC50", "setting": "PDE1C", "result": 8, "unit": "nM"}, {"measurement": "IC50", "setting": "PDE1B", "result": 40, "unit": "nM"}, {"measurement": "IC50", "setting": "PDE1A", "result": 47, "unit": "nM"}]}, {"smiles": "CCCc1nnc2c(=O)n(CC3C4CC5CC(C4)CC3C5)ccn12", "note": "(stereo not drawn) [7-(((1r,3r,5r,7r)-adamantan-2-yl)methyl)-3-propyl-[1,2,4]triazolo[4,3-a]pyrazin-8(7H)-one]", "values": [{"measurement": "IC50", "setting": "PDE1C", "result": 63, "unit": "nM"}, {"measurement": "IC50", "setting": "PDE1B", "result": 210, "unit": "nM"}, {"measurement": "IC50", "setting": "PDE1A", "result": 179, "unit": "nM"}]}, {"smiles": "CCCc1nnc2c(=O)n(Cc3cccc(C)c3)ccn12", "note": "[7-(3-Methylbenzyl)-3-propyl-[1,2,4]triazolo[4,3-a]pyrazin-8(7H)-one]", "values": [{"measurement": "IC50", "setting": "PDE1C", "result": 170, "unit": "nM"}, {"measurement": "IC50", "setting": "PDE1B", "result": 1600, "unit": "nM"}, {"measurement": "IC50", "setting": "PDE1A", "result": 1500, "unit": "nM"}]}, {"smiles": "Cc1ccc(Cc2cn3c(C4CCOCC4)nnc3c(=O)n2Cc2cccc(F)c2)cc1", "note": "[7-(3-fluorobenzyl)-6-(4-methylbenzyl)-3-(tetrahydro-2H-pyran-4-yl)-[1,2,4]triazolo[4,3-a]pyrazin-8(7H)-one]", "values": [{"measurement": "IC50", "setting": "PDE1C", "result": 1, "unit": "nM"}, {"measurement": "IC50", "setting": "PDE1B", "result": 6, "unit": "nM"}, {"measurement": "IC50", "setting": "PDE1A", "result": 7, "unit": "nM"}]}, {"smiles": "CCCc1nnc2c(=O)n(CC3CCCCC3)ccn12", "note": "[7-(Cyclohexylmethyl)-3-propyl-[1,2,4]triazolo[4,3-a]pyrazin-8(7H)-one]", "values": [{"measurement": "IC50", "setting": "PDE1C", "result": 47, "unit": "nM"}, {"measurement": "IC50", "setting": "PDE1B", "result": 81, "unit": "nM"}, {"measurement": "IC50", "setting": "PDE1A", "result": 96, "unit": "nM"}]}, {"smiles": "CCCc1nnc2c(=O)n(Cc3ccc(C)cc3)ccn12", "note": "[7-(4-Methylbenzyl)-3-propyl-[1,2,4]triazolo[4,3-a]pyrazin-8(7H)-one]", "values": [{"measurement": "IC50", "setting": "PDE1C", "result": 780, "unit": "nM"}, {"measurement": "IC50", "setting": "PDE1B", "result": 930, "unit": "nM"}, {"measurement": "IC50", "setting": "PDE1A", "result": 1000, "unit": "nM"}]}, {"smiles": "CCCc1nnc2c(=O)n(CC3CCCC3)ccn12", "note": "[7-(Cyclopentylmethyl)-3-propyl-[1,2,4]triazolo[4,3-a]pyrazin-8(7H)-one]", "values": [{"measurement": "IC50", "setting": "PDE1C", "result": 95, "unit": "nM"}, {"measurement": "IC50", "setting": "PDE1B", "result": 820, "unit": "nM"}, {"measurement": "IC50", "setting": "PDE1A", "result": 840, "unit": "nM"}]}, {"smiles": "CCCc1nnc2c(=O)n(CC3CCOCC3)ccn12", "note": "[3-Propyl-7-((tetrahydro-2H-pyran-4-yl)methyl)-[1,2,4]triazolo[4,3-a]pyrazin-8(7H)-one]", "values": [{"measurement": "IC50", "setting": "PDE1C", "result": 1600, "unit": "nM"}, {"measurement": "inhibition at 10 µM", "setting": "PDE1B", "result": 47, "unit": "%"}, {"measurement": "inhibition at 10 µM", "setting": "PDE1A", "result": 42, "unit": "%"}]}, {"smiles": "Cc1ccccc1Cc1cn2c(C3CCOCC3)nnc2c(=O)n1CC1CCCCCC1", "note": "[7-(cycloheptylmethyl)-6-(2-methylbenzyl)-3-(tetrahydro-2H-pyran-4-yl)-[1,2,4]triazolo[4,3-a]pyrazin-8(7H)-one]", "values": [{"measurement": "IC50", "setting": "PDE1C", "result": 14, "unit": "nM"}, {"measurement": "IC50", "setting": "PDE1B", "result": 39, "unit": "nM"}, {"measurement": "IC50", "setting": "PDE1A", "result": 25, "unit": "nM"}]}, {"smiles": "CCCc1nnc2c(=O)n(CC)ccn12", "note": "[7-Ethyl-3-propyl-[1,2,4]triazolo[4,3-a]pyrazin-8(7H)-one]", "values": [{"measurement": "PDE1C inhibition (nM or %): % inhib", "setting": "PDE1C; % inhibition of the enzyme at a concentration of 10 micro molar of the compound", "result": 52, "unit": "%"}, {"measurement": "inhibition at 10 µM", "setting": "PDE1B", "result": 71, "unit": "%"}, {"measurement": "inhibition at 10 µM", "setting": "PDE1A", "result": 49, "unit": "%"}]}, {"smiles": "CCCc1nnc2c(=O)n(CC3CCCC(C)C3)ccn12", "note": "(mixture of isomers) [7-((3-methylcyclohexyl)methyl)-3-propyl-[1,2,4]triazolo[4,3-a]pyrazin-8(7H)-one]", "values": [{"measurement": "IC50", "setting": "PDE1C", "result": 83, "unit": "nM"}, {"measurement": "IC50", "setting": "PDE1B", "result": 230, "unit": "nM"}, {"measurement": "IC50", "setting": "PDE1A", "result": 320, "unit": "nM"}]}, {"smiles": "O=c1c2nnc(CC3CCOC3)n2ccn1Cc1cccc(F)c1", "note": "(stereo not drawn) [7-(3-Fluorobenzyl)-3-((tetrahydrofuran-3-yl)methyl)-[1,2,4]triazolo[4,3-a]pyrazin-8(7H)-one]", "values": [{"measurement": "IC50", "setting": "PDE1C", "result": 420, "unit": "nM"}, {"measurement": "IC50", "setting": "PDE1B", "result": 1900, "unit": "nM"}, {"measurement": "IC50", "setting": "PDE1A", "result": 1200, "unit": "nM"}]}, {"smiles": "Cc1cccc(Cc2cn3c(C4CCOCC4)nnc3c(=O)n2Cc2cccc(F)c2)c1", "note": "[7-(3-fluorobenzyl)-6-(3-methylbenzyl)-3-(tetrahydro-2H-pyran-4-yl)-[1,2,4]triazolo[4,3-a]pyrazin-8(7H)-one]", "values": [{"measurement": "IC50", "setting": "PDE1C", "result": 2, "unit": "nM"}, {"measurement": "IC50", "setting": "PDE1B", "result": 9, "unit": "nM"}, {"measurement": "IC50", "setting": "PDE1A", "result": 6, "unit": "nM"}]}]}
